Data as given in patent US10092551B2, “Spiro-thiazolones” (Hoffmann-La Roche Inc., priority 2014, dated 2018).

Biological target: human V1a receptor (Homo sapiens (Human), UniProt P37288)
Assay: human V1a receptor binding studies (3H-Vasopressin, SPA beads)
Settings: membranes of HEK293 cells transiently transfected with human V1a receptor, Ki by Cheng-Prussoff
How it was run: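 Membranes from HEK293 cells transiently expressing cloned human V1a receptor, bound on yttrium silicate SPA beads with 4 nM 3H-vasopressin (added stock) and serially diluted compound, 1 h at room temperature. Non-specific binding defined with cold vasopressin; IC50 by non-linear regression, Ki via Cheng-Prusoff.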

Sequence of human V1a receptor (P37288 whole entry): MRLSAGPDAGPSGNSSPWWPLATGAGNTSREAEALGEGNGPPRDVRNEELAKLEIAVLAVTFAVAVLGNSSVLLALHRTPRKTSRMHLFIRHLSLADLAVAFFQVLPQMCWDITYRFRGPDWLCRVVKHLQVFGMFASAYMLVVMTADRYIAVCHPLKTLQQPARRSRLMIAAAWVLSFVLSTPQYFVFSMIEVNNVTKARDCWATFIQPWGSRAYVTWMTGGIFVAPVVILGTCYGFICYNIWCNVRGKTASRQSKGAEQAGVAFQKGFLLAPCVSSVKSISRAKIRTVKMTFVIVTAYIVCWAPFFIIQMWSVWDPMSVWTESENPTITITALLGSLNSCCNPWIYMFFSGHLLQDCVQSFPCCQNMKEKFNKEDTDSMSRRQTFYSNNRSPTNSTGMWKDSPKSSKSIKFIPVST

pKi hV1a | Compound
7.0 | O=C1N=C(N2CCC3(CC2)OCc2ccccc23)SC1=C(CCl)CCl [Example 113, 5-(1,3-dichloropropan-2-ylidene)-2-(1′H,3H-spiro[2-benzofuran-1,4′-piperidin]-1′-yl)-1,3-thiazol-4(5H)-one]
8.9 | C/C(=C1/SC(N2CCC3(CC2)OCc2ccccc23)=NC1=O)c1oc(C)nc1C [Example 86, (5E/Z)-5-[1-(2,4-dimethyl-1,3-oxazol-5-yl)ethylidene]-2-(1′H,3H-spiro[2-benzofuran-1,4′-piperidin]-1′-yl)-1,3-thiazol-4(5H)-one]
6.6 | C/C(=C1/SC(N2CCC3(CC2)OCc2ccccc23)=NC1=O)c1nc[nH]c1C [Example 109, (5E/Z)-5-[1-(5-methyl-1H-1-imidazol-4-yl)ethylidene]-2-(1′H,3H-spiro[2-benzofuran-1,4′-piperidin]-1′-yl)-1,3-thiazol-4(5H)-one]
8.9 | CCCC(CCC)=C1SC(N2CCC3(CC2)OCc2ccccc23)=NC1=O [Example 114, 5-(heptan-4-ylidene)-2-(1′H,3H-spiro[2-benzofuran-1,4′-piperidin]-1′-yl)-1,3-thiazol-4(5H)-one]
8.3 | C/C(=C1\SC(N2CCC3(CC2)OCc2ccccc23)=NC1=O)c1ccccc1F [Example 56, (5E)-5-[1-(2-fluorophenyl)ethylidene]-2-(1′H,3H-spiro[2-benzofuran-1,4′-piperidin]-1′-yl)-1,3-thiazol-4(5H)-one]
8.0 | O=C1N=C(N2CCC3(CC2)OCc2ccccc23)SC1=C(c1ccc(F)cc1)c1ccc(F)cc1 [Example 101, 5-[bis(4-fluorophenyl)methylidene]-2-(1′H,3H-spiro[2-benzofuran-1,4′-piperidin]-1′-yl)-1,3-thiazol-4(5H)-one]
7.5 | Cc1cc(/C=C2\SC(N3CCC4(CC3)OCc3ccccc34)=NC2=O)no1 [Example 91, 5-[(5-methyl-1,2-oxazol-3-yl)methylidene]-2-(1′H,3H-spiro[2-benzofuran-1,4′-piperidin]-1′-yl)-1,3-thiazol-4(5H)-one]
9.2 | C/C(=C1/SC(N2CCC3(CC2)OCc2ccccc23)=NC1=O)c1ccccc1 [Example 151, (5Z)-5-(1-phenylethylidene)-2-(1′H,3H-spiro[2-benzofuran-1,4′-piperidin]-1′-yl)-1,3-thiazol-4(5H)-one]
7.8 | CC(C)/C(=C1\SC(N2CCC3(CC2)OCc2ccccc23)=NC1=O)c1ccc(Cl)cc1 [Example 154, (5E)-5-[1-(4-chlorophenyl)-2-methylpropylidene]-2-(1′H,3H-spiro[2-benzofuran-1,4′-piperidin]-1′-yl)-1,3-thiazol-4(5H)-one]
9.1 | C/C(=C1/SC(N2CCC3(CC2)OCc2ccccc23)=NC1=O)c1cccnc1F [Example 61, (5Z)-5-[1-(2-fluoropyridin-3-yl)ethylidene]-2-(1′H,3H-spiro[2-benzofuran-1,4′-piperidin]-1′-yl)-1,3-thiazol-4(5H)-one]
9.4 | C/C(=C1/SC(N2CCC3(CC2)OCc2ccccc23)=NC1=O)c1ccc(Cl)nc1 [Example 96, (5Z)-5-[1-(6-chloropyridin-3-yl)ethylidene]-2-(1′H,3H-spiro[2-benzofuran-1,4′-piperidin]-1′-yl)-1,3-thiazol-4(5H)-one]
8.9 | O=C1N=C(N2CCC3(CC2)OCc2ccccc23)S/C1=C(/CO)c1ccc(Cl)nc1 [Example 130, (5E)-5-[1-(6-chloropyridin-3-yl)-2-hydroxyethylidene]-2-(1′H,3H-spiro[2-benzofuran-1,4′-piperidin]-1′-yl)-1,3-thiazol-4(5H)-one]
8.3 | O=C1N=C(N2CCC3(CC2)OCc2ccccc23)S/C1=C1/CC2C3CC4C2C4C13 (centres unmarked) [Example 55, (5E/Z)-5-[hexahydro-1,2,4-(methanetriyl)pentalen-5(1H)-ylidene]-2-(1′H,3H-spiro[2-benzofuran-1,4′-piperidin]-1′-yl)-1,3-thiazol-4(5H)-one]
7.3 | C/C(=C1\SC(N2CCC3(CC2)OCc2ccccc23)=NC1=O)c1c(C)noc1C [Example 106, (5E)-5-[1-(3,5-dimethyl-1,2-oxazol-4-yl)ethylidene]-2-(1′H,3H-spiro[2-benzofuran-1,4′-piperidin]-1′-yl)-1,3-thiazol-4(5H)-one]
9.3 | CC(C)(C)OC(=O)NC/C(=C1/SC(N2CCC3(CC2)OCc2ccccc23)=NC1=O)c1ccccc1 [Example 159, tert-butyl {(2E/Z)-2-[4-oxo-2-(1′H,3H-spiro[2-benzofuran-1,4′-piperidin]-1′-yl)-1,3-thiazol-5(4H)-ylidene]-2-phenylethyl}carbamate]
7.7 | C/C(=C1\SC(N2CCC3(CC2)OCc2ccccc23)=NC1=O)c1cccnc1Cl [Example 84, (5E)-5-[1-(2-chloropyridin-3-yl)ethylidene]-2-(1′H,3H-spiro[2-benzofuran-1,4′-piperidin]-1′-yl)-1,3-thiazol-4(5H)-one]
7.6 | C/C(=C1/SC(N2CCC3(CC2)OCc2ccccc23)=NC1=O)c1ccnc(C)c1 [Example 77, (5E/Z)-5-[1-(2-methylpyridin-4-yl)ethylidene]-2-(1′H,3H-spiro[2-benzofuran-1,4′-piperidin]-1′-yl)-1,3-thiazol-4(5H)-one]
8.4 | O=C1N=C(N2CCC3(CC2)OCc2ccccc23)SC1=C(c1ccccc1)c1ccccc1 [Example 82, 5-(diphenylmethylidene)-2-(1′H,3H-spiro[2-benzofuran-1,4′-piperidin]-1′-yl)-1,3-thiazol-4(5H)-one]
8.3 | C/C(=C1\SC(N2CCC3(CC2)OCc2ccccc23)=NC1=O)c1ccc(C)nc1 [Example 153, (5E)-5-[1-(6-methylpyridin-3-yl)ethylidene]-2-(1′H,3H-spiro[2-benzofuran-1,4′-piperidin]-1′-yl)-1,3-thiazol-4(5H)-one]

The remaining lines, values behind:

Compound | pKi hV1a
C/C(=C1/SC(N2CCC3(CC2)OCc2ccccc23)=NC1=O)c1ccc[nH]1 [Example 34, (5E/Z)-5-[1-(1H-pyrrol-2-yl)ethylidene]-2-(1′H,3H-spiro[2-benzofuran-1,4′-piperidin]-1′-yl)-1,3-thiazol-4(5H)-one] | 9.2
C/C(=C1/SC(N2CCC3(CC2)OCc2ncccc23)=NC1=O)c1ccc(Cl)cc1 [Example 6, (5E/Z)-5-[1-(4-chlorophenyl)ethylidene]-2-(1′H,7H-spiro[furo[3,4-b]pyridine-5,4′-piperidin]-1′-yl)-1,3-thiazol-4(5H)-one] | 9.3
CC/C(=C1/SC(N2CCC3(CC2)OCc2ccccc23)=NC1=O)c1ccncc1 [Example 31, (5Z)-5-[1-(pyridin-4-yl)propylidene]-2-(1′H,3H-spiro[2-benzofuran-1,4′-piperidin]-1′-yl)-1,3-thiazol-4(5H)-one] | 8.4
O=C1N=C(N2CCC3(CC2)OCc2ccccc23)SC1=C1CCOCC1 [Example 44, 2-(1′H,3H-spiro[2-benzofuran-1,4′-piperidin]-1′-yl)-5-(tetrahydro-4H-pyran-4-ylidene)-1,3-thiazol-4(5H)-one] | 8.1
C/C(=C1/SC(N2CCC3(CC2)OC(=O)c2ccccc23)=NC1=O)c1ccc(Cl)cc1 [Example 3, 1′-{(5E/Z)-5-[1-(4-chlorophenyl)ethylidene]-4-oxo-4,5-dihydro-1,3-thiazol-2-yl}-3H-spiro[2-benzofuran-1,4′-piperidin]-3-one] | 9.0
C/C(=C1/SC(N2CCC3(CC2)OCc2ccccc23)=NC1=O)c1ccc(C)nc1 [Example 7, (5E/Z)-5-[1-(6-methylpyridin-3-yl)ethylidene]-2-(1′H,3H-spiro[2-benzofuran-1,4′-piperidin]-1′-yl)-1,3-thiazol-4(5H)-one] | 8.9
O=C1N=C(N2CCC3(CC2)OCc2ccccc23)S/C1=C1/CCc2cc(Cl)ccc21 [Example 10, (5E/Z)-5-(5-chloro-2,3-dihydro-1H-inden-1-ylidene)-2-(1′H,3H-spiro[2-benzofuran-1,4′-piperidin]-1′-yl)-1,3-thiazol-4(5H)-one] | 6.9
CC(C)(C)[Si](C)(C)OC/C(=C1/SC(N2CCC3(CC2)OCc2ccccc23)=NC1=O)c1ccccc1 [Example 123, (5E)-5-(2-{[tert-butyl(dimethyl)silyl]oxy}-1-phenylethylidene)-2-(1′H,3H-spiro[2-benzofuran-1,4′-piperidin]-1′-yl)-1,3-thiazol-4(5H)-one] | 8.5
CC/C(=C1/SC(N2CCC3(CC2)OCc2ccccc23)=NC1=O)c1ccc(Cl)cc1 [Example 24, (5Z)-5-[1-(4-chlorophenyl)propylidene]-2-(1′H,3H-spiro[2-benzofuran-1,4′-piperidin]-1′-yl)-1,3-thiazol-4(5H)-one] | 9.1
C/C(=C1/SC(N2CCC3(CC2)OCc2ccccc23)=NC1=O)c1ccccn1 [Example 38, (5Z)-5-[1-(pyridin-2-yl)ethylidene]-2-(1′H,3H-spiro[2-benzofuran-1,4′-piperidin]-1′-yl)-1,3-thiazol-4(5H)-one] | 8.8
O=C1N=C(N2CCC3(CC2)OCc2ccccc23)S/C1=C(\c1ccc(Cl)cc1)C1CC1 [Example 22, (5E/Z)-5-[(4-chlorophenyl)(cyclopropyl)methylidene]-2-(1′H,3H-spiro[2-benzofuran-1,4′-piperidin]-1′-yl)-1,3-thiazol-4(5H)-one] | 7.8
C/C(=C1/SC(N2CCC3(CC2)OCc2ccccc23)=NC1=O)C1CCCCC1 [Example 29, (5Z)-5-(1-cyclohexylethylidene)-2-(1′H,3H-spiro[2-benzofuran-1,4′-piperidin]-1′-yl)-1,3-thiazol-4(5H)-one] | 8.7
O=C1N=C(N2CCC3(CC2)OCc2ccccc23)S/C1=C(\c1ccc(Cl)cc1)C(F)(F)F [Example 18, (5E)-5-[1-(4-chlorophenyl)-2,2,2-trifluoroethylidene]-2-(1′H,3H-spiro[2-benzofuran-1,4′-piperidin]-1′-yl)-1,3-thiazol-4(5H)-one] | 9.1
